# Key:
# [1] = Pharmacokinetics, drug in plasma after i.v. or per os application; format: in vivo, NMRI mice
# Procedure: Blood was collected at 15 min, 30 min, 1 h, 2 h, 4 h, 6 h, 8 h and 24 h (test day 2) after administration and plasma was analysed for the presence of the drug. […] Blood was collected at 15 min, 30 min, 1 h, 2 h, 4 h, 6 h, 8 h and 24 h (test day 2) after administration and plasma was analysed for the presence of the drug. Each data point represents the mean value of three plasma samples. Graphpad Prism 7 software was used to illustrate both figures.
# 34.88 mg PD-0184264 were dissolved in 0.075 ml DMSO and further diluted with 0.225 ml Cremophor EL/2.7 ml PBS. […] 81.0 mg PD-0184264 were dissolved in 0.2 ml DMSO/0.6 ml Cremophor EL/3.2 ml PBS.
# Eight week old male NMRI mice (Charles River Laboratories, Germany) with a body weight of 23.9-36.5 g at administration were used for pharmacokinetic studies. The animals were normally fed. Drinking water was available ad libitum.
# Experiments were performed at LPT GmbH (Hamburg, Germany). Sufficient whole blood—taken under isoflurane anaesthesia—was collected to obtain at least 2×100 μl Li-Heparin plasma of 3 animals per group and time-point at the following times: 0 (predose), 15 min, 30 min, 1 h, 2 h, 4 h, 6 h, 8 h and 24 h (test day 2) after administration. The whole blood samples were instantly cooled using an Iso-Therm-Rack system (Eppendorf AG, Germany) until centrifugation within 0.5 hours after withdrawal. Immediately after centrifugation, the samples were stored at −20° C. until further analysis. Plasma analysis was performed using standard procedures at Prolytic GmbH (Frankfurt, Germany).
# Drugs were either administrated using a single dosing on test day 1 by oral gavage or by Intravenous bolus injection into a tail vein. The Injection speed was 15 s/dose with an administration volume of 200 μl.
# [2] = test system: A549 cells infected with A/Puerto Rico/8/34 (H1N1) and/or S. aureus 6850; format: cell-based
# [3] = test system: Streptococcus pneumoniae strain TIGR4 (serotype 4); assay: Over-night growth of Streptococcus pneumoniae (OD600, bacterial titers); format: cell-based; conditions: over night treatment
# Procedure: (§1) Similar to S. aureus, the majority of Streptococcus pneumoniae strains express eukaryotic-like serine/threonine kinases, such as PknB, which are highly conserved between different genera. Additionally, these kinases share high homology to cellular MAP kinases (e.g. ERK, JNK, p38). […] Thus, the impact of PD-0184264 on different strains of Streptococci pneumonia was analyzed. Streptococcus pneumoniae strains can be divided into different serotypes, which differ in their virulence and overall pathogenicity. To test for a serotype- or strain-independent effect, we used the encapsulated strains D39 and TIGR4, which are both virulent, but belong to different serotypes. […] Then, the OD600 was measured again (Results shown in FIG. 11A) and dilution series were objected to BHI agar plates to determine bacterial titers (Results shown in FIG. 11B).
# [4] = test system: Streptococcus pneumoniae strain D39 wt (serotype 2); assay: as above; format: cell-based; conditions: over night treatment
# Procedure: as §1
# Bacillus subtilis = assay: Bacterial load of B. subtilis after 18 h (OD600, plating); format: cell-based
# Procedure: Specifically, to test for a potential antibacterial effect on B. subtilis, over-night cultures of B. subtilis were incubated with either solvent or different concentrations of the MEK inhibitor PD-0184264 (as indicated) for 18 h. Afterwards, bacterial load was determined via measurement of the OD600 and plating of serial dilutions on BHI agar plates. Data shown in FIG. 11 represent means+SD of three independent experiments.
# S. aureus 6850 [5] = format: cell-based, Staphylococcus aureus
# [6] = WST-Assay (cell viability); format: cell-based; conditions: human, A549 cells, FIG. 17C
# Procedure: A549 cells were seeded in a 96-well flat-bottom tissue plate (Greiner, Germany) and were grown overnight. […] Thereafter, 10 μl WST-1 reagent (Roche, Germany) was added to the culture medium and incubated for four hours. During this time, the stable tetrazolium salt WST-1 was cleaved to a soluble formazan by metabolically active cells in the culture. After this incubation period, the formazan dye formed was quantitated with ELISA reader at 405 nm. The measured absorbance directly correlated to the number of viable cells.
# S. aureus 6850 [7] = assay: Over-night treated culture, bacterial titers (CFU/ml) and OD600; format: cell-based, Staphylococcus aureus
# A549 cells = assay: A549 cell viability (trypan blue) and LDH release; format: cell-based, human; conditions: 1-100 μM, 24 and 48 hours
# Procedure: To rule out that the reduction in viral and intracellular bacterial replication was a result of a cytotoxic effect of PD-0184264 on A549 cells, cell viability in presence of increasing concentrations was monitored for 24 and 48 hours. Additionally, a LDH-Assay was performed to determine membrane rupture due to inhibitor treatment. […] A549 cells were treated for 24 (as shown in FIGS. 15A and C) or 48 (as shown in FIGS. 15B and D) hours with increasing concentrations of PD-0184264 (1, 5, 10, 20, 50 or 100 μM). After the incubation times, supernatants were taken for measurement of LDH release (shown in FIGS. 15C, D) using the CytoSelect LDH Cytotoxicity Assay Kit according to the manufacturer's instructions. Additionally, viable cells were counted by staining with trypan blue. Cell viability was normalized to DMSO-treated cells and is shown as % viability. […] Statistical significance was calculated by one-way ANOVA followed by Dunnett's multiple comparisons test (*p<0.05; **p<0.01; […]***p<0.001).
# MRSA strain USA300 = assay: Over-night treated culture, bacterial titers (CFU/ml) and OD600; format: cell-based, Staphylococcus aureus
compound,measurement,setting,value
"O=C(O)c1ccc(F)c(F)c1Nc1ccc(I)cc1Cl [PD-0184264, 2-(2-chloro-4-iodophenylamino)-N-3,4-difluoro benzoic acid]",drug in plasma at eight hours,[1]; 150 mg/kg per os application,still a high concentration
same,AUC,"[1]; mouse, plasma, iv, male NMRI mice, route of this value not stated (75 mg/kg i.v. / 150 mg/kg per os)",1950 µg·h/mL
same,concentration already showing reduction of the cytopathic effect,"[2]; bacterial and viral co-infection, FIG. 5",15 µM
same,"cytopathic effect (CPE), cell monolayer disruption","[2]; increasing concentrations, 24 h, IAV (H1N1) MOI 0.001 and S. aureus 6850 MOI 0.1",reversed in a concentration dependent manner
same,"sensitivity of growth (OD600, bacterial titers)",[3],sensitive
same,"sensitivity of growth (OD600, bacterial titers)",[4],sensitive
same,viable bacterial counts,Bacillus subtilis; 10 μM,strong decrease in viable bacterial counts
same,viable bacterial counts,Bacillus subtilis; concentrations higher than 10 μM,complete abolishment
same,intracellular bacterial titers,S. aureus 6850 [5],reduced intracellular bacterial titers
same,CC50 at 24 h,[6],> 1.58 mM
same,reduction of bacterial growth (FIG. 4),"S. aureus 6850 [7]; 10 μM, over night, S. aureus 6850",significant reduction of growth
same,reduction of bacterial titers,"S. aureus 6850 [7]; 20 μM, over night, S. aureus 6850, CFU/ml",1.5-2 orders of a magnitude
same,effect on bacterial titers (CFU/ml),"S. aureus 6850 [7]; over night treatment, S. aureus 6850, vs solvent",very strong reduction in bacterial load
same,"cell toxicity (cell viability, LDH release)",A549 cells,does not induce cell toxicity
same,reduction of bacterial growth (FIG. 4),"MRSA strain USA300; 10 μM, over night, MRSA USA300",significant reduction of growth
same,reduction of bacterial titers,"MRSA strain USA300; 20 μM, over night, MRSA USA300, CFU/ml",1.5-2 orders of a magnitude
same,effect on bacterial titers (CFU/ml),"MRSA strain USA300; over night treatment, MRSA USA300, vs solvent",very strong reduction in bacterial load

# Source: patent US11903917B2, “MEK-inhibitor for the treatment of viral and bacterial infections” (priority 2017, dated 2024)
